Key:
Assay in all cases: Eurofins kinase panel
Format in all cases: biochemical
Conditions in all cases: read-out: Inhibition rate (%)
Pyk2(h) = molecular target: T1, Pyk2(h) (Homo sapiens, UniProt Q14289)
T1 construct: purchased Eurofins (KinaseProfiler)
Experimental: (§1) Active FGFR1–4, VEGFR1, KDR, VEGFR3, PDGFRα and PDGFRβ proteins were purchased from Eurofins (Fremont, United States), and kinase activity was assessed using ELISA, as previously reported. […]. Increasing concentrations of ATP were diluted for the kinase reaction in the ATP competition assay. CSF-1R kinase activity was analyzed using the Z’-LYTE™ Kinase Assay Kit (Thermo Fisher, United States). The assay formats are described in the SelectScreen Kinase Profiling Service Zlyte protocol. IC50 values were calculated by dose-response curve fitting using Prism (Graph Pad).

PAK3(h) = molecular target: T2, PAK3(h) (Homo sapiens, UniProt O75914)
T2 construct: purchased Eurofins (KinaseProfiler)
T2 sequence (O75914 whole entry): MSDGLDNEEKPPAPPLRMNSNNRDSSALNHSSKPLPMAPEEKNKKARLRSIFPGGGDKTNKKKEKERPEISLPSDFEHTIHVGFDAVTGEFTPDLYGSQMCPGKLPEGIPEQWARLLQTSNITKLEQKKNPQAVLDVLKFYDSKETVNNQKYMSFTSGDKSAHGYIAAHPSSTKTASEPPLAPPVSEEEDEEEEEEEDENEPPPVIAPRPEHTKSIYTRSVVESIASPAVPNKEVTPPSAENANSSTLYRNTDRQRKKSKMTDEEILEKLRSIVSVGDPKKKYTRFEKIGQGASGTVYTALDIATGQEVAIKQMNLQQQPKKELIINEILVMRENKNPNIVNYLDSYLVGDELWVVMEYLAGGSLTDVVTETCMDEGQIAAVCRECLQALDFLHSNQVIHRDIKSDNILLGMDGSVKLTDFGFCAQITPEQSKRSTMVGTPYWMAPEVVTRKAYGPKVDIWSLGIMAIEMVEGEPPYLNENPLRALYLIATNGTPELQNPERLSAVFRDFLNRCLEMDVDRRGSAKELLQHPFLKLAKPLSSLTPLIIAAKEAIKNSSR
Experimental: as §1

ErbB2(h) = molecular target: T3, ErbB2(h) (Homo sapiens, UniProt P04626)
T3 construct: purchased Eurofins (KinaseProfiler)
T3 sequence (P04626 23-1255): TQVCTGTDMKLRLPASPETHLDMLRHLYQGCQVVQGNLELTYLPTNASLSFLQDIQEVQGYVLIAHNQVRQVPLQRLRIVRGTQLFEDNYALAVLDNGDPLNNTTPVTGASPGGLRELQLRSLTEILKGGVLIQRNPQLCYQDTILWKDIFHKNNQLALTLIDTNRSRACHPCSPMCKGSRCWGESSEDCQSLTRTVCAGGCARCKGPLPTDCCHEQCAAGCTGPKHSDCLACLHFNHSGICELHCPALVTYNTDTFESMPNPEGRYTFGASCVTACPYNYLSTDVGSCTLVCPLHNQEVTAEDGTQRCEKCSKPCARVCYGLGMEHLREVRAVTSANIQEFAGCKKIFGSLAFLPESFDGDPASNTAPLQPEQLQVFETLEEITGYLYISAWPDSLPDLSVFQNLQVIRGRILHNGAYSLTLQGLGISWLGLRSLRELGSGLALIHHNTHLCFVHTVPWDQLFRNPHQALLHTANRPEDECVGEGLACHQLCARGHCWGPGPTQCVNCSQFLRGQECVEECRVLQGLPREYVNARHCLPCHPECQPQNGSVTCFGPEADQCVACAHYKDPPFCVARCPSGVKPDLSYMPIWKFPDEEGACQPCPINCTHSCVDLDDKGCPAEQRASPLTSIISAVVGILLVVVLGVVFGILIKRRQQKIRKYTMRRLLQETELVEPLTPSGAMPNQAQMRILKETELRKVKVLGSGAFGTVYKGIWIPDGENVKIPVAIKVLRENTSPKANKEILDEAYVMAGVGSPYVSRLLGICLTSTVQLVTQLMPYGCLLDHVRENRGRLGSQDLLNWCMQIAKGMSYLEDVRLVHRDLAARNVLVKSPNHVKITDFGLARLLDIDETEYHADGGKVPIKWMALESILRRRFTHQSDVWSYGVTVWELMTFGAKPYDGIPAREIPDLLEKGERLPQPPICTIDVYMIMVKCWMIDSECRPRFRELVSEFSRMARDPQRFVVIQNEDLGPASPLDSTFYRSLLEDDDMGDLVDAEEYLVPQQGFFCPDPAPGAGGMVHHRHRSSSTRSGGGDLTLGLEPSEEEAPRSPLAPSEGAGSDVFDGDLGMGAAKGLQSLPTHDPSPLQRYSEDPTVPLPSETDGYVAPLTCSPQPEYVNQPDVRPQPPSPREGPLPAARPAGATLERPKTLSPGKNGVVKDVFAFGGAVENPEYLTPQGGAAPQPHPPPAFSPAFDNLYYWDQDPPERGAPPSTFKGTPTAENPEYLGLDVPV
Experimental: as §1

TLK1(h) = molecular target: T4, TLK1(h) (Homo sapiens, UniProt Q9UKI8)
T4 construct: purchased Eurofins (KinaseProfiler)
T4 sequence (Q9UKI8 1-766): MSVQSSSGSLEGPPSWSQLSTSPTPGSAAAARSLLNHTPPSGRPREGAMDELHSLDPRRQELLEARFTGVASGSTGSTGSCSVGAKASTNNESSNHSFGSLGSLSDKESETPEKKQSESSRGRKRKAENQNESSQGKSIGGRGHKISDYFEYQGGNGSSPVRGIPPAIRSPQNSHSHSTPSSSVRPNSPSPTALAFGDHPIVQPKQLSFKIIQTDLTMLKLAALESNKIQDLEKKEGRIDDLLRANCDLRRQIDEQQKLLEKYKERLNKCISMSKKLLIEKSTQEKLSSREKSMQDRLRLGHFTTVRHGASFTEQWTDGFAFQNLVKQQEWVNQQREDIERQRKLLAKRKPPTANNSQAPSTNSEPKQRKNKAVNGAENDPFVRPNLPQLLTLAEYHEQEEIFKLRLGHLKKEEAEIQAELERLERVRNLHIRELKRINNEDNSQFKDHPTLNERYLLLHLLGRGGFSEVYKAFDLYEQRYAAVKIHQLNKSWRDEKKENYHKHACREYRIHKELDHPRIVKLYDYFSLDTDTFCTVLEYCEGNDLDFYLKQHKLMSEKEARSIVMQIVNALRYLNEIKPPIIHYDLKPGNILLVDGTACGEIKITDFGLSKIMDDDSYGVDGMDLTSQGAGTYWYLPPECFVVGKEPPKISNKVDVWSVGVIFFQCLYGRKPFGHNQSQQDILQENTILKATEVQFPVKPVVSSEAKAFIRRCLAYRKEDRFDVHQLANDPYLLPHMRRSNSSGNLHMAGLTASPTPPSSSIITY
Experimental: as §1

MOK(h) = molecular target: T5, MOK(h) (Homo sapiens, UniProt Q9UQ07)
T5 construct: purchased Eurofins (KinaseProfiler)
T5 sequence (Q9UQ07 1-419): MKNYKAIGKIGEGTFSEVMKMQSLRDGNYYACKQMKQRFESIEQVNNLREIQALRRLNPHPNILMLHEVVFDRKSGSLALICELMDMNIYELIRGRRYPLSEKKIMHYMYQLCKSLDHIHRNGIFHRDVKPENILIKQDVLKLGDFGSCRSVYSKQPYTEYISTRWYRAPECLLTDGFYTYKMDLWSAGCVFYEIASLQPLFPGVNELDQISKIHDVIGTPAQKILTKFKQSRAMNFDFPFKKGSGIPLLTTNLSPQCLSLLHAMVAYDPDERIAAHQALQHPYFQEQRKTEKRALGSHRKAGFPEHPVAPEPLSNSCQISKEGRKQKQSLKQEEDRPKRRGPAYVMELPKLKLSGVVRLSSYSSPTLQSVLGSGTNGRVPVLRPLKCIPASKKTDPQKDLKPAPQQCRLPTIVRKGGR
Experimental: as §1

PRK1(h) = molecular target: T6, PRK1(h) (Homo sapiens, UniProt Q16512)
T6 construct: purchased Eurofins (KinaseProfiler)
T6 sequence (Q16512 whole entry): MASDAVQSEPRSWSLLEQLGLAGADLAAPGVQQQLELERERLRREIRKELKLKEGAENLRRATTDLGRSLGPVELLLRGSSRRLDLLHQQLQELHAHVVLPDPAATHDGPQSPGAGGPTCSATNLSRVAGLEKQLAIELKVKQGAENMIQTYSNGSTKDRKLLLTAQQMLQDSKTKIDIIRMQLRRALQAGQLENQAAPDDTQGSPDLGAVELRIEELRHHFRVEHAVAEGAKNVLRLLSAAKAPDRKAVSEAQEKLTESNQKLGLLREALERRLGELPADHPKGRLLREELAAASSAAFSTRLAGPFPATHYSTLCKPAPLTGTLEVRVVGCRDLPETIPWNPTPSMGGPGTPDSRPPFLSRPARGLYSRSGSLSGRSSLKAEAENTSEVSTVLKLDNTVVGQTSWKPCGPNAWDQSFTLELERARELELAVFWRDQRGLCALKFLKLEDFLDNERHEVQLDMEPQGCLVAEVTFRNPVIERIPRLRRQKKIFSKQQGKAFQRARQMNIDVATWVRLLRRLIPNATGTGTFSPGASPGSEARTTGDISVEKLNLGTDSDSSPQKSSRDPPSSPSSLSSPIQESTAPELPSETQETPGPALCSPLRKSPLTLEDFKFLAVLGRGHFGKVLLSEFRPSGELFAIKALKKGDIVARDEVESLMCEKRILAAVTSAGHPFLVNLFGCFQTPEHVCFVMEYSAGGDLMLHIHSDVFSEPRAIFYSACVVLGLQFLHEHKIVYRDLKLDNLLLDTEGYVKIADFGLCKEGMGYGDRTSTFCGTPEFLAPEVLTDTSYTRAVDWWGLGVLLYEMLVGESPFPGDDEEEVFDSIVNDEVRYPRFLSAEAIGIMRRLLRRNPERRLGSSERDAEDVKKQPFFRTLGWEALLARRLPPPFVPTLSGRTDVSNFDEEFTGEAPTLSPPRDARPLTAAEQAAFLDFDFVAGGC
Experimental: as §1

Src(T341M)(h) = molecular target: T7, Src(T341M)(h) (Homo sapiens, UniProt P12931, T341M)
T7 construct: purchased Eurofins (KinaseProfiler)
T7 sequence (P12931 whole entry T341M): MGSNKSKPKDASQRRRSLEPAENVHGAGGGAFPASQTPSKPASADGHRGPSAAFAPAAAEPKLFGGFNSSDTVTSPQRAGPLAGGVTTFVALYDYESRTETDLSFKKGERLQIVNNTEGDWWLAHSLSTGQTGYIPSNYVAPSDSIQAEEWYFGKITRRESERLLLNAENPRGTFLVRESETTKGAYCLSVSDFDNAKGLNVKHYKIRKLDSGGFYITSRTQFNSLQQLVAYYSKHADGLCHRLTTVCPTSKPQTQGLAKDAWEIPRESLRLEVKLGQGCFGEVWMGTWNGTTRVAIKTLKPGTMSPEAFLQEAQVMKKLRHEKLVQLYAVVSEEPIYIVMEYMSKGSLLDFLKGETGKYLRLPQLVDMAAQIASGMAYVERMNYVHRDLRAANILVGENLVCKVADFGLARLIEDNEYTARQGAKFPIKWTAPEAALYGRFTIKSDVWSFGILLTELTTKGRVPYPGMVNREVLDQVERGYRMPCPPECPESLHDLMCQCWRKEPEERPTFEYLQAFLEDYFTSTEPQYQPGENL
Experimental: as §1

T1 sequence (Q14289 whole entry): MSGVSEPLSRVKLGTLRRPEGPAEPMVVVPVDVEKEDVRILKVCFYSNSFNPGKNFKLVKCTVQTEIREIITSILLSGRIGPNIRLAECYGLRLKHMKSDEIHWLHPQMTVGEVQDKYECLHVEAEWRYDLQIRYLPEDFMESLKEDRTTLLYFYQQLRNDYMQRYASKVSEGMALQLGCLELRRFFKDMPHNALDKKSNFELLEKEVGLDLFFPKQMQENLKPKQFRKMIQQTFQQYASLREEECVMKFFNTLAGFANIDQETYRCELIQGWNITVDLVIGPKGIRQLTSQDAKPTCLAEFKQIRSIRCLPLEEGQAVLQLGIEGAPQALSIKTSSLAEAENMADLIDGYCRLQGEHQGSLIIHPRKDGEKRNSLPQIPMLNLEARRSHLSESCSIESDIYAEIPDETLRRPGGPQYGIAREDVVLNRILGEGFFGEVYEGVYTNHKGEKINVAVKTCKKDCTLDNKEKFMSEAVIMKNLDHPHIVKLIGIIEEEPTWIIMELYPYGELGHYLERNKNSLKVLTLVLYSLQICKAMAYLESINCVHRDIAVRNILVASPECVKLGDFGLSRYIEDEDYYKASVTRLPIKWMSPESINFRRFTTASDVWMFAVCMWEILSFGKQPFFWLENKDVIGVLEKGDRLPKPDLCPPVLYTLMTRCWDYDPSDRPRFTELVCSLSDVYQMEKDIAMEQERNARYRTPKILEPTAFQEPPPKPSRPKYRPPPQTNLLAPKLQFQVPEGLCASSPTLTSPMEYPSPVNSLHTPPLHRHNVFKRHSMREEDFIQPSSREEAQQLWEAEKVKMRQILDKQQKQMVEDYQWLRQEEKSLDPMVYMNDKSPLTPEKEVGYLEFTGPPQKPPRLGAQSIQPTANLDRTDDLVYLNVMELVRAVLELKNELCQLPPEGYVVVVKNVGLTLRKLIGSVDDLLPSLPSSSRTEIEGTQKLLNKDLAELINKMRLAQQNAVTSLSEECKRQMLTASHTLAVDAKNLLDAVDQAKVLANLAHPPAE

COc1cc(OC)c(Cl)c(-c2ccc3c(NC(=O)c4ccc(N5CCNC(C)(C)C5)cc4)n[nH]c3n2)c1Cl [3D185] was tested, and the inhibition at 0.01 µM (Pyk2(h); 10 nM) was 2%, the inhibition at 0.1 µM (Pyk2(h); 100 nM) was 24% and the inhibition at 1 µM (Pyk2(h); 1000 nM) was 71%. The inhibition at 0.01 µM (PAK3(h); 10 nM) was -1%, the inhibition at 0.1 µM (PAK3(h); 100 nM) was -3% and the inhibition at 1 µM (PAK3(h); 1000 nM) was 7%. The inhibition at 0.01 µM (ErbB2(h); 10 nM) was -7%, the inhibition at 0.1 µM (ErbB2(h); 100 nM) was -11% and the inhibition at 1 µM (ErbB2(h); 1000 nM) was -11%. For the same molecule, the inhibition at 0.01 µM (TLK1(h); 10 nM) was -1%, the inhibition at 0.1 µM (TLK1(h); 100 nM) was -4% and the inhibition at 1 µM (TLK1(h); 1000 nM) was -8%. The inhibition at 0.01 µM (MOK(h); 10 nM) was -7%, the inhibition at 0.1 µM (MOK(h); 100 nM) was 6% and the inhibition at 1 µM (MOK(h); 1000 nM) was 1%. The inhibition at 0.01 µM (PRK1(h); 10 nM) was 2%, the inhibition at 0.1 µM (PRK1(h); 100 nM) was 1% and the inhibition at 1 µM (PRK1(h); 1000 nM) was 2%. The inhibition at 0.01 µM (Src(T341M)(h); 10 nM) was 8%, the inhibition at 0.1 µM (Src(T341M)(h); 100 nM) was 33% and the inhibition at 1 µM (Src(T341M)(h); 1000 nM) was 88%.

Source: PMC6704710, “Preclinical evaluation of 3D185, a novel potent inhibitor of FGFR1/2/3 and CSF-1R, in FGFR-dependent and macrophage-dominant cancer models” (Journal of Experimental & Clinical Cancer Research : CR, 2019)
